The source of these data is PubChem BioAssay (NCI).

Molecules are shown by their SMILES.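 Exposure lasted 48 hours, with cells grown in 96-well plates and compounds tested at five concentrations. TGI marks complete inhibition of growth.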

Some test systems named below: SR leukemia; MDA-MB-231 breast; CAKI-1 renal; PC-3 prostate; MOLT-4 leukemia; SK-MEL-28 melanoma; HOP-92 NSCLC; K-562 leukemia; TK-10 renal; RPMI-8226 leukemia; KM12 colon; HCT-116 colon; CCRF-CEM leukemia; HL-60(TB) leukemia; EKVX NSCLC; UACC-257 melanoma; A498 renal; HCT-15 colon; SW-620 colon.
What all share (assay): NCI anticancer screen, dose series, 48 h

For the compound `COc1ccc(OC)c2sc(N3C(=O)/C(=C/Cc4ccco4)N=C3c3ccccc3)nc12`, the TGI is 43.9 µM in the experiment on SR leukemia; over 100 µM with MDA-MB-231 breast; over 100 µM with CAKI-1 renal; 71.5 µM in the experiment on PC-3 prostate; 70.9 µM in the experiment with MOLT-4 leukemia; over 100 µM in the experiment on SK-MEL-28 melanoma. The TGI in the experiment with HOP-92 NSCLC is over 100 µM; in the experiment on K-562 leukemia, over 100 µM; with TK-10 renal, over 100 µM; in the experiment on RPMI-8226 leukemia it was over 100 µM; with KM12 colon it was over 100 µM; in the experiment on HCT-116 colon, 98.9 µM. The TGI in the experiment with CCRF-CEM leukemia is 26.9 µM; in the experiment on HL-60(TB) leukemia, 37.9 µM; in the experiment with EKVX NSCLC, over 100 µM; in the experiment with UACC-257 melanoma it was over 100 µM; in the experiment on A498 renal it was over 100 µM; in the experiment with HCT-15 colon it was over 100 µM. The compound further registered a TGI in the experiment with SW-620 colon of over 100 µM.
Turning to `CCOC(=O)C(c1c[nH]c2ccccc12)(c1c[nH]c2ccccc12)c1c[nH]c2ccccc12`, the TGI in the experiment with SR leukemia is 80 µM; in the experiment on MDA-MB-231 breast, over 100 µM; with CAKI-1 renal it was over 100 µM; in the experiment with PC-3 prostate, 71.2 µM; with MOLT-4 leukemia, 40.8 µM; with SK-MEL-28 melanoma, over 100 µM. Moreover, the TGI in the experiment with HOP-92 NSCLC is over 100 µM; with K-562 leukemia, 46.8 µM; in the experiment with TK-10 renal, over 100 µM; in the experiment with RPMI-8226 leukemia, 45.7 µM; in the experiment with KM12 colon it was 98.7 µM; in the experiment on HCT-116 colon, over 100 µM. Moreover, the TGI in the experiment on CCRF-CEM leukemia is 58.9 µM; in the experiment on HL-60(TB) leukemia, 43.9 µM; in the experiment with EKVX NSCLC, over 100 µM; in the experiment with UACC-257 melanoma, over 100 µM; with A498 renal it was over 100 µM; in the experiment with HCT-15 colon, over 100 µM. In the experiment with SW-620 colon, this compound yielded a TGI of 75.9 µM.
With `Cc1nn2c(=O)c([N+](=O)[O-])c(/C=C/c3ccccc3)nc2s1`, the TGI with SR leukemia was 6.52 µM; in the experiment with MDA-MB-231 breast, over 100 µM; with CAKI-1 renal, over 100 µM; with PC-3 prostate, over 100 µM; with MOLT-4 leukemia, 20.8 µM; in the experiment with SK-MEL-28 melanoma, 64.2 µM. Also, the TGI is over 100 µM with HOP-92 NSCLC; over 26.7 µM with K-562 leukemia; 41.3 µM in the experiment on TK-10 renal; 6.84 µM in the experiment with RPMI-8226 leukemia; 11 µM in the experiment with KM12 colon; 15.4 µM with HCT-116 colon. Besides, the TGI in the experiment on CCRF-CEM leukemia was 7.65 µM; with HL-60(TB) leukemia, 5.61 µM; with EKVX NSCLC it was over 29.8 µM; in the experiment on UACC-257 melanoma, over 100 µM; in the experiment on A498 renal, 59 µM; with HCT-15 colon it was 12.3 µM. This compound returned a TGI with SW-620 colon of over 51.4 µM.
`Oc1ccccc1/C=N/Nc1nnc2c3ccccc3c3ccccc3c2n1`: the TGI with SR leukemia, with MDA-MB-231 breast, in the experiment on CAKI-1 renal, in the experiment with PC-3 prostate, with MOLT-4 leukemia and with SK-MEL-28 melanoma was over 100 µM each time. Also, the TGI in the experiment on HOP-92 NSCLC, in the experiment on K-562 leukemia, with TK-10 renal, with RPMI-8226 leukemia, with KM12 colon and with HCT-116 colon was over 100 µM in each case. The TGI in the experiment with CCRF-CEM leukemia was over 100 µM; in the experiment on HL-60(TB) leukemia, over 100 µM; in the experiment on EKVX NSCLC it was over 100 µM; with UACC-257 melanoma it was 64.7 µM; with A498 renal it was over 100 µM; in the experiment on HCT-15 colon it was over 100 µM. Moreover, in the experiment with SW-620 colon, the TGI is over 100 µM.
On to `COc1ccc(Br)c2c1CC(C(=O)O)CC2` (stereo not drawn), for which the TGI with SR leukemia, in the experiment with MDA-MB-231 breast, in the experiment with CAKI-1 renal, in the experiment with PC-3 prostate, in the experiment with MOLT-4 leukemia and with SK-MEL-28 melanoma was over 100 µM each time. Further, the TGI in the experiment with HOP-92 NSCLC, in the experiment on K-562 leukemia, in the experiment with TK-10 renal, in the experiment with RPMI-8226 leukemia, in the experiment with KM12 colon and with HCT-116 colon was over 100 µM throughout. The TGI in the experiment on CCRF-CEM leukemia, in the experiment on HL-60(TB) leukemia, in the experiment with EKVX NSCLC, in the experiment with UACC-257 melanoma, in the experiment with A498 renal and with HCT-15 colon was over 100 µM throughout. The same compound showed a TGI in the experiment on SW-620 colon of over 100 µM.
For `C=C(c1ccccc1)C1ON(C)CCc2cc(OC)c(OC)cc21` (stereo not drawn), the TGI in the experiment on SR leukemia, in the experiment with MDA-MB-231 breast, with CAKI-1 renal, with PC-3 prostate, in the experiment with MOLT-4 leukemia and in the experiment on SK-MEL-28 melanoma was over 100 µM throughout. The TGI in the experiment with HOP-92 NSCLC, with K-562 leukemia, with TK-10 renal, in the experiment on RPMI-8226 leukemia, in the experiment on KM12 colon and with HCT-116 colon was over 100 µM each time. The TGI in the experiment on CCRF-CEM leukemia, in the experiment with HL-60(TB) leukemia, in the experiment on EKVX NSCLC, with UACC-257 melanoma, in the experiment with A498 renal and in the experiment on HCT-15 colon was over 100 µM each time. Also, in the experiment on SW-620 colon, the TGI is over 100 µM.
For the compound `CCOC(=O)/C(C)=C\[C@@]1(C)O[C@@H](C)[C@@](C)(OC(C)=O)[C@@H]1OC(C)=O`, the TGI in the experiment with SR leukemia, with MDA-MB-231 breast, with CAKI-1 renal, in the experiment on PC-3 prostate, in the experiment on MOLT-4 leukemia and in the experiment with SK-MEL-28 melanoma was over 100 µM in each case. In addition, the TGI in the experiment on HOP-92 NSCLC, in the experiment on K-562 leukemia, in the experiment on TK-10 renal, in the experiment with RPMI-8226 leukemia, with KM12 colon and in the experiment on HCT-116 colon was over 100 µM throughout. In addition, the TGI in the experiment on CCRF-CEM leukemia is over 100 µM; with HL-60(TB) leukemia, over 100 µM; in the experiment on EKVX NSCLC it was over 100 µM; in the experiment with UACC-257 melanoma, over 100 µM; with A498 renal, over 100 µM; in the experiment on HCT-15 colon, 60.2 µM. The same compound gave a TGI in the experiment with SW-620 colon of over 100 µM.
